These compounds were tested against T1, AHR (UniProt P35869) (assay: DRE-Luciferase Reporter Assay (Alternate Method) (Example 1B)). Settings: cell line and AHR activating ligand not specified.
T1 construct: IC50
T1 sequence (P35869 1-848): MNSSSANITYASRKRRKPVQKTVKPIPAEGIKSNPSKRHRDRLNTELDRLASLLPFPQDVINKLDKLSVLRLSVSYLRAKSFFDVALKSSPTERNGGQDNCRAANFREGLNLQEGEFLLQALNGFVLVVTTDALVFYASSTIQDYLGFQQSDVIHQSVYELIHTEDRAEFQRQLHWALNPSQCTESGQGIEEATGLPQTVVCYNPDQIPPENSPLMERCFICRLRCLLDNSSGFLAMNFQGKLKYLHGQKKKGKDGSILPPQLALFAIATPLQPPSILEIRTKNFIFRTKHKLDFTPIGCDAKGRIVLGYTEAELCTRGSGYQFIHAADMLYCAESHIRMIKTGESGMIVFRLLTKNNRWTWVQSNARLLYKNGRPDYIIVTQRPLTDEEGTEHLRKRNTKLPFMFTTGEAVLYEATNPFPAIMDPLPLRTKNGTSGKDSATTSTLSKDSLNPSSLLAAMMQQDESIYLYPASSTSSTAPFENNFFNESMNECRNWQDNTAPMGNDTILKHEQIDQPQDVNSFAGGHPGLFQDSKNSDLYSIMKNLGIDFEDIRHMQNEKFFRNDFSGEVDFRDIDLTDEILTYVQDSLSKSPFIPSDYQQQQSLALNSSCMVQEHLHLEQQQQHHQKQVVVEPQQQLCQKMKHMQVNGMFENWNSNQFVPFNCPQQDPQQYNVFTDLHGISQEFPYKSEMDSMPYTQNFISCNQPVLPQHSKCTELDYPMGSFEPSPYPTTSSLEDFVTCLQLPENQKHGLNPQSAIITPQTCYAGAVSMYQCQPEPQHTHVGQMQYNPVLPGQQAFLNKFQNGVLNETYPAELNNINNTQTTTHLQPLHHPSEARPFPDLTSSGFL
Format: cell-based, murine or human

Structure (SMILES) | IC50 [nM]
CCc1cnn2c(NCCc3c[nH]c4ccccc34)cc(-c3cncc(F)c3)nc12 [I-237, 3-Ethyl-5-(5-fluoro-3-pyridyl)-N-[2-(1H-indol-3-yl)ethyl]pyrazolo[1,5-a]pyrimidin-7-amine] | < 500
Cc1cnn2c(NC[C@@H](O)c3c[nH]c4ccccc34)cc(-c3cncc(F)c3)nc12 [I-150b, (1S)-2-[[5-(5-Fluoro-3-pyridyl)-3-methyl-pyrazolo[1,5-a]pyrimidin-7-yl]amino]-1-(1H-indol-3-yl)ethanol] | 1000 to 1500
Cc1[nH]c2c(F)cc(F)cc2c1CCNc1nc(-c2cncc(F)c2)nc2c1ncn2C(C)C [I-11, N-(2-(5,7-Difluoro-2-methyl-1H-indol-3-yl)ethyl)-2-(5-fluoropyridin-3-yl)-9-isopropyl-9H-purin-6-amine] | < 500
O=C(O)c1cnn2c(NCCc3c[nH]c4ccccc34)cc(-c3cncc(F)c3)nc12 [I-183] | > 1500
Oc1ccc2c(c1)CC(Nc1cc(-c3cncc(F)c3)nc3ccnn13)C2 (stereo not drawn) [I-52, 2-[[5-(5-Fluoro-3-pyridyl)pyrazolo[1,5-a]pyrimidin-7-yl]amino]indan-5-ol] | 500 to 1000
Cc1[nH]c2c(F)cc(F)cc2c1CCNc1cc(OC(C)C)nc(-c2cncc(F)c2)n1 [I-74, N-[2-(5,7-Difluoro-2-methyl-1H-indol-3-yl)ethyl]-2-(5-fluoro-3-pyridyl)-6-isopropoxy-pyrimidin-4-amine] | 500 to 1000
Cc1cnn2c(N[C@H](Cc3c[nH]c4ccccc34)C(=O)N(C)C)cc(-c3cncc(F)c3)nc12 [I-187a] | > 1500
CC(C)c1cnn2c(C(=O)NCc3cccc(O)c3)cc(-c3cncc(F)c3)nc12 [I-95, 5-(5-Fluoro-3-pyridyl)-N-[(3-hydroxyphenyl)methyl]-3-isopropyl-pyrazolo[1,5-a]pyrimidine-7-carboxamide] | > 1500
Fc1cncc(-c2nc(N[C@H]3CCc4[nH]ccc4C3)c3ncccc3n2)c1 [I-252a, 2-(5-Fluoro-3-pyridyl)-N-[(5S)-4,5,6,7-tetrahydro-1H-indol-5-yl]pyrido[3,2-d]pyrimidin-4-amine] | < 500
Cc1cnn2c(N[C@@H](Cc3c[nH]c4ccccc34)C(=O)N(C)C)cc(-c3cncc(F)c3)nc12 [I-187b, (2S)-2-[[5-(5-Fluoro-3-pyridyl)-3-methyl-pyrazolo[1,5-a]pyrimidin-7-yl]amino]-3-(1H-indol-3-yl)-N,N-dimethyl-propanamide] | > 1500
O=C(O)c1cnn2c(NC[C@H](O)c3c[nH]c4ccccc34)cc(-c3cncc(F)c3)nc12 [I-158a] | > 1500
CC(C)c1cnn2c(NCCc3c[nH]c4ccccc34)cc(-c3ccc4c(c3)OCO4)nc12 [I-246, 5-(1,3-Benzodioxol-5-yl)-N-[2-(1H-indol-3-yl)ethyl]-3-isopropyl-pyrazolo[1,5-a]pyrimidin-7-amine] | 1000 to 1500
CC(C)c1cnn2c(NC3CCc4[nH]c5ccccc5c4C3)cc(-c3cccc4c3OCO4)nc12 (stereo not drawn) [I-228] | > 1500
CC(C)c1cnn2c(N[C@@H]3CCc4[nH]c5ccccc5c4C3)nc(C3CCOCC3)nc12 [I-258, (3R)—N-(8-Isopropyl-2-tetrahydropyran-4-yl-pyrazolo[1,5-a][1,3,5]triazin-4-yl)-2,3,4,9-tetrahydro-1H-carbazol-3-amine] | > 1500
O=C(c1cnn2c(NCCc3c[nH]c4ccccc34)cc(-c3cncc(F)c3)nc12)N1CCCCC1 [I-55, [5-(5-Fluoro-3-pyridyl)-7-[2-(1H-indol-3-yl)ethylamino]pyrazolo[1,5-a]pyrimidin-3-yl]-(1-piperidyl)methanone] | < 500
CC(C)c1cnn2c(NCCc3c[nH]c4cccnc34)cc(-c3cncc(F)c3)nc12 [I-110, 5-(5-Fluoro-3-pyridyl)-3-isopropyl-N-[2-(1H-pyrrolo[3,2-b]pyridin-3-yl)ethyl]pyrazolo[1,5-a]pyrimidin-7-amine] | 500 to 1000
CC(C)c1cnn2c(N[C@@H](C)Cc3c[nH]c4ccccc34)cc(-c3cncc(F)c3)nc12 [I-98a, 5-(5-Fluoro-3-pyridyl)-N-[(1S)-2-(1H-indol-3-yl)-1-methyl-ethyl]-3-isopropyl-pyrazolo[1,5-a]pyrimidin-7-amine] | > 1500
CC(C)c1cnn2c(NCCc3ccc(O)cc3)cc(-c3cncc(F)c3)nc12 [I-108, 4-[2-[[5-(5-Fluoro-3-pyridyl)-3-isopropyl-pyrazolo[1,5-a]pyrimidin-7-yl]amino]ethyl]phenol] | < 500
Cc1cnn2c(NCCc3cn[nH]c3)cc(-c3cncc(F)c3)nc12 [I-173] | > 1500
CC(O)c1cnn2c(NCCc3c[nH]c4ccccc34)cc(-c3cncc(F)c3)nc12 (stereo not drawn) [I-33, 1-[5-(5-Fluoro-3-pyridyl)-7-[2-(1H-indol-3-yl)ethylamino]pyrazolo[1,5-a]pyrimidin-3-yl]ethanol] | < 500

Structure (SMILES) | IC50 [nM]
CC(C)c1cnn2c(N[C@H]3CCc4[nH]c5ccccc5c4C3)cc(-c3cncc(F)c3)nc12 [I-75b, (3S)—N-[5-(5-Fluoro-3-pyridyl)-3-isopropyl-pyrazolo[1,5-a]pyrimidin-7-yl]-2,3,4,9-tetrahydro-1H-carbazol-3-amine] | > 1500
Cc1[nH]c2ccc(F)cc2c1CCNc1nc(-c2cncc(F)c2)nc2c1ncn2C(C)C [I-69, N-[2-(5-Fluoro-2-methyl-1H-indol-3-yl)ethyl]-2-(5-fluoro-3-pyridyl)-9-isopropyl-purin-6-amine] | < 500
Cc1cnn2c(NCCc3ccc(NS(C)(=O)=O)cc3)cc(-c3cncc(F)c3)nc12 [I-195, N-[4-[2-[[5-(5-Fluoro-3-pyridyl)-3-methyl-pyrazolo[1,5-a]pyrimidin-7-yl]amino]ethyl]phenyl]methanesulfonamide] | > 1500
COc1ccccc1-c1cc(NCCc2c[nH]c3ccccc23)n2ncc(C(C)C)c2n1 [I-240, N-[2-(1H-indol-3-yl)ethyl]-3-isopropyl-5-(2-methoxyphenyl)pyrazolo[1,5-a]pyrimidin-7-amine] | > 1500
Cc1cnn2c(NCCc3ccc(O)nc3)cc(-c3cncc(F)c3)nc12 [I-194] | > 1500
Cc1[nH]c2ccccc2c1CCNc1nc(-c2cncc(F)c2)nc2c1ncn2C(C)C [I-79, 2-(5-Fluoro-3-pyridyl)-9-isopropyl-N-[2-(2-methyl-1H-indol-3-yl)ethyl]purin-6-amine] | < 500
CC(C)c1cnn2c(N[C@@H]3CCc4[nH]c5ccccc5c4C3)cc(-c3cncc(C#N)c3)nc12 [I-38, 5-[3-Isopropyl-7-[[(3R)-2,3,4,9-tetrahydro-1H-carbazol-3-yl]amino]pyrazolo[1,5-a]pyrimidin-5-yl]pyridine-3-carbonitrile] | > 1500
CC(C)c1cnn2c(NC3CCc4[nH]c5ccccc5c4C3)nc(-c3cccc(OC(F)(F)F)c3)nc12 (stereo not drawn) [I-261] | > 1500
NC(=O)c1cnn2c(NC3CCc4[nH]c5c(F)cccc5c4C3)cc(-c3cncc(F)c3)nc12 (stereo not drawn) [I-231] | > 1500
CC(C)c1cnn2c(NC3CCc4[nH]c5ccccc5c4C3)nc(-n3ccnc3)nc12 (stereo not drawn) [I-281] | < 500
CNCc1cnn2c(NC3CCc4[nH]c5ccccc5c4C3)nc(-c3cncc(F)c3)nc12 (stereo not drawn) [I-277] | < 500
CC(C)c1cnn2c(N[C@@H]3CCc4[nH]c5ccccc5c4C3)nc(N3CCOCC3)nc12 [I-254, (3R)—N-(8-Isopropyl-2-morpholino-pyrazolo[1,5-a][1,3,5]triazin-4-yl)-2,3,4,9-tetrahydro-1H-carbazol-3-amine] | > 1500
Cc1cnn2c(NC[C@H](C)c3c[nH]c4ccccc34)cc(-c3cncc(F)c3)nc12 [I-160b, 5-(5-Fluoro-3-pyridyl)-N-[(2R)-2-(1H-indol-3-yl)propyl]-3-methyl-pyrazolo[1,5-a]pyrimidin-7-amine] | > 1500
CC(C)Oc1cc(NCCc2c[nH]c3cccnc23)nc(-c2cncc(F)c2)n1 [I-104, 2-(5-Fluoro-3-pyridyl)-6-isopropoxy-N-[2-(1H-pyrrolo[3,2-b]pyridin-3-yl)ethyl]pyrimidin-4-amine] | 500 to 1000
CC(C)c1cnn2c(N[C@@H]3Cc4ccc(O)cc4C3)cc(-c3cncc(F)c3)nc12 [I-234, (2R)-2-[[5-(5-Fluoro-3-pyridyl)-3-isopropyl-pyrazolo[1,5-a]pyrimidin-7-yl]amino]indan-5-ol] | 500 to 1000
CC(C)c1cnn2c(NC3CCc4[nH]c5ccccc5c4C3)nc(-c3ccc(=O)n(C)c3)nc12 (stereo not drawn) [I-272] | > 1500
COc1cccc2c(CCNc3cc(-c4cncc(F)c4)nc4c(C)cnn34)c[nH]c12 [I-179, 5-(5-Fluoro-3-pyridyl)-N-[2-(7-methoxy-1H-indol-3-yl)ethyl]-3-methyl-pyrazolo[1,5-a]pyrimidin-7-amine] | < 500
CC(=O)Nc1ccc(CCNc2cc(-c3cncc(F)c3)nc3c(C)cnn23)cc1 [I-206] | > 1500
Fc1cncc(-c2cc(NC3Cc4cc5c(cc4C3)OCO5)n3nccc3n2)c1 [I-50, N-(6,7-Dihydro-5H-cyclopenta[f][1,3]benzodioxol-6-yl)-5-(5-fluoro-3-pyridyl)pyrazolo[1,5-a]pyrimidin-7-amine] | > 1500

Source: patent US11358969B2, “Indole AHR inhibitors and uses thereof” (Ikena Oncology, Inc., priority 2017, dated 2022)
